Data set [1] is described as follows: Solubility (physical and chemical properties). It counts as physicochemical.
A further data set deals with K562 cells. The experiment in a line: anti-tumor in vitro experiment, K562 cell growth inhibition (trypan blue counting). It counts as cell-based. The settings on record: Homo sapiens, 48 hours at 37° C., trypan blue living-cell count, read-out: median inhibitory concentration IC50. On the procedure: Implementation case 3: anti-tumor in vitro experiments
The cultivation condition for K562 cells (human chronic myeloid leukemia leap cell lines) is: the volume fraction of 10 percent of the calf serum RPMI1640, penicillin (100 IU/ml) and streptomycin (100 μg/ml), at 37° C., 5% CO2 incubation box for cultivation. Take the logarithm growth period cells used for the inhibition rate experiments, with the concentration of cells inoculated 2.5×10^5/ml. In the 96-pore cultivation board, K562 cells are vaccinated with the inoculation amount of about 5×10^4/pore, 200 μl each pore. The drug is dissolved in dimethyl sulfoxide (DMSO), making the storage fluid of 10 mg/ml. Four groups are set up in this experiment, adding different concentrations of drugs respectively, so that the final concentrations are respectively 0.1, 1, 10, 100 μg/ml. There is no drug added for the reference control group, and three parallel holes are set up for each group, cultivating at 37° C. for 48 hours. Taking 0.4 percent trypan blue liquid (take 4 g trypan blue and put it into 100 ml PBS, making four percent trypan blue raw fluid, filtrated and disinfected, stored in 4° C. refrigerator, ready to use. Concentration is of 0.4 percent) and the cell suspension fluid, 50 μl respectively, mixing, and then take appropriate mixed fluid to fill in cell counting board, counting the four big grid non-coloring living cells. […]

The source of these data is US20100041896A1, “Macrolide compound with bis-oxazoly” (priority 2008, published 2010).

In brackets after ≈: the same amount, converted by molar mass.

As to `C/C1=C/[C@H](C)C[C@H](C)[C@H](Cc2cnco2)OC(=O)/C(C)=C\[C@H](C)C[C@H](C)C(Cc2cnco2)OC1=O` (stereo partly shown) [FW-04-806], the Solubility entry is recorded as “soluble” in data set [1] (in methyl alcohol, ethyl acetate and dimethylsulfoxide); “nearly insoluble” in data set [1] (in n-hexane or petroleum ether); “insoluble” in data set [1] (in water). Also, the IC50 in the data set on K562 cells turned out to be 12.4 µg/mL (≈ 24.8 µM).
